Source: patent US10596172B2 (Celgene CAR LLC, priority 2008, dated 2020)
Read-outs that look alike come from different tables or passages of the source.

Columns and labels:
Erbb4 kinase domain = Erbb4 kinase domain (Homo sapiens (Human), UniProt Q15303); assay: Mass spectrometry for ERBB4; type: binding; conditions: 60 minutes at 10-fold excess of compound
Experimental: Erbb4 kinase domain (Upstate) was incubated with compound for 60 minutes at 10-fold excess of compound I-4 and I-11 to protein. 1 μl aliquots of the samples (total volume of 4.24 ul) were diluted with 10 μl of 0.1% TFA prior to micro C4 ZipTipping directly onto the MALDI target using Sinapinic acid as the desorption matrix (10 mg/ml in 0.1% TFA:Acetonitrile 50:50). For intact protein mass measurement the instrument was set in Linear mode using a pulsed extraction setting of 16,952 for the myoglobin standard used to calibrate the instrument (Shimadzu Axima TOF^2).
Intact ErbB4 protein occurs at MH+ of 35850 with corresponding sinapinic (matrix) adducts occurring about 200 Da higher. A stoichiometric incorporation of the test compound (I-4 and I-11) (Mw of 410 Da) produced a new mass peak which is approximately 410 Da higher (MH+ of 36260).

BTK [1] = target: BTK (Rattus norvegicus, UniProt Q5S255); assay: BTK occupancy from in vivo samples by ELISA; conditions: po, rats dosed orally 30 mg/kg
Experimental: All samples were prepared with equal concentrations of Biorad lysis buffer (Hercules, Calif., USA), 0.5% bovine serum albumin in PBS with 0.05% Tween-20 to give a final concentration of 1 μM I-215. Samples were incubated in a mixing plate for 1 hr at room temperature while shaking to allow probe compound I-215 to bind to free BTK. After incubation with I-215, samples were added to a washed, streptavidin-coated ELISA plate (Pierce, Rockford, Ill., USA) and incubated for 1 hr at room temperature while shaking. The plate was then washed with PBS containing 0.05% Tween-20 using an automatic plate washer. Anti-BTK antibody was prepared at 1:1000 dilution in 0.5% BSA in PBS (0.05% Tween-20) and added to the ELISA plate. The plate was incubated for 1 hr at room temperature while shaking. The plate was washed as described above and the secondary HRP antibody was prepared at 1:5000 dilution in 0.5% BSA in PBS (0.05% Tween-20). The plate was incubated and washed as described above. TMB was added to the plate, and OD650 was monitored until reaching 1 OD unit. The reaction was then stopped with addition of H2SO4. The plate was analyzed using Gen 5 software, and a 4 Parameter Logistic curve was employed to quantitate samples. Recombinant BTK (Invitrogen, Carlsbad, Calif., USA) was used for the standard curve.
Rats were dosed orally with 30 mg/kg of compound and spleens were harvested either 2 or 24 hours after compound treatment. Rat spleens were disrupted between two microscope slides coated with frosted glass to recover single cell suspensions. Red blood cells were lysed by incubating with RBC lysis buffer (Boston BioProducts) for 2 minutes at room temperature, the cells were then resuspended in RPMI complete media and pelleted by centrifugation. Rat B cells were isolated by positive selection with B220+ antibody-magnetic bead conjugates, purified by MACS column and lysed in Bio-Rad lysis buffer at a concentration of 10 million cells/100 μl. Lysates were analyzed employing the biotinylated probe compound I-215 in an ELISA protocol as described in detail in Example 278.

JAK3 = JAK3 (Homo sapiens (Human), UniProt P52333); assay: Mass spectrometry for Janus-3 kinase (JAK3); type: binding; conditions: 3 hrs at 10x excess, tryptic digest
Experimental: JAK3 kinase (33 pmols; Invitrogen) was incubated with (I-7) (327 pmols) for 3 hrs at 10× excess prior to tryptic digestion. Iodoacetamide was used as the alkylating agent after compound incubation. For tryptic digests a 5 ul aliquot (5.5 pmols) was diluted with 15 ul of 0.1% TFA prior to micro C18 Zip Tipping directly onto the MALDI target using alpha cyano-4-hydroxy cinnamic acid as the matrix (5 mg/ml in 0.1% TFA:Acetonitrile 50:50).
As depicted in FIG. 11, the expected peptide ([…]) to be modified was immediately evident as the largest peak at MH+ of 1725.88. This is the mass to be expected when compound I-7, with an adduct mass of 345.16, is added to the peptide mass of 1380.70. […] There was also evidence for a number of other modified peptides, however, their signals were low.
To further verify the presence of the modified peptides with compound I-7, the peptides at MH+ of 1725.88 and 1118.55 were subjected to PSD (MS/MS) analysis. A correlational analysis with the homo sapien database identified the correct peptides as being modified by I-7.
For tryptic digests the instrument was set in Reflectron mode with a pulsed extraction setting of 2200. Calibration was done using the Laser Biolabs Pep Mix standard ([…], 1296.69, 1672.92, 2093.09, 2465.20). […]

BTK [2] = target: T1, BTK (Homo sapiens (Human), UniProt Q06187); assay: Washout experiment with I-7 and probe compound I-215 in Ramos cells; type: cell-based; conditions: 0.1 μM, 1 hour
Experimental: Ramos cells were incubated with 0.1 μM I-7 or a reversible BTK inhibitor control compound in serum free media for 1 hour at 37° C. The cells were then washed in compound-free media and lysed 0, 4, 6, or 8 hours after compound removal. Cell lysates were incubated with 1 μM I-215 for 1 hour at room temperature, then overnight at 4° C. with streptavidin-coupled agarose beads. Protein was boiled off the beads and BTK association was assessed by western blot. […] In contrast, with the reversible inhibitor control, 45% of BTK protein is unbound and available to the probe at 0 hours and by 4 hours 100% of BTK protein is unbound and available to bind the probe. All samples were normalized to the DMSO-treated cells harvested at 0 hours.

BTK [3] = target: T1, BTK; assay: BTK occupancy in Ramos cells with I-7 and probe I-215 using streptavidin beads; type: cell-based; conditions: 1 hour, higher concentrations of I-7 (above 10 nM)
Experimental: Ramos cells were incubated with 0.1, 0.05, 0.01, or 0.001 μM I-7 in serum free media for 1 hour at 37° C. The cells were pelleted by centrifugation and lysed in Cell Extraction buffer (Invitrogen) for 10 minutes on ice, centrifuged (10 minutes at 14,000 rpm) and the supernatant was collected. Cell lysates were incubated with 1 μM I-215 for 1 hour at room temperature, then incubated with streptavidin-coupled agarose beads (ThermoFisher) overnight at 4° C. The beads were washed three times with lysis buffer and the bound proteins were boiled off the beads at 95° C. for 5 minutes in 4×LDS Sample Buffer. The amount of BTK associated with the probe I-215 was assessed by BTK western blot. All values were normalized to the DMSO-treated sample which is set to 100%.

[4] = spleen B cells harvested 2 hours after treatment, read-out: % BTK Occupancy 2 h
[5] = spleen B cells harvested 24 hours after treatment, read-out: % BTK Occupancy 24 h

Chain of BTK (Rattus norvegicus, UniProt Q5S255) (Q5S255 1-660): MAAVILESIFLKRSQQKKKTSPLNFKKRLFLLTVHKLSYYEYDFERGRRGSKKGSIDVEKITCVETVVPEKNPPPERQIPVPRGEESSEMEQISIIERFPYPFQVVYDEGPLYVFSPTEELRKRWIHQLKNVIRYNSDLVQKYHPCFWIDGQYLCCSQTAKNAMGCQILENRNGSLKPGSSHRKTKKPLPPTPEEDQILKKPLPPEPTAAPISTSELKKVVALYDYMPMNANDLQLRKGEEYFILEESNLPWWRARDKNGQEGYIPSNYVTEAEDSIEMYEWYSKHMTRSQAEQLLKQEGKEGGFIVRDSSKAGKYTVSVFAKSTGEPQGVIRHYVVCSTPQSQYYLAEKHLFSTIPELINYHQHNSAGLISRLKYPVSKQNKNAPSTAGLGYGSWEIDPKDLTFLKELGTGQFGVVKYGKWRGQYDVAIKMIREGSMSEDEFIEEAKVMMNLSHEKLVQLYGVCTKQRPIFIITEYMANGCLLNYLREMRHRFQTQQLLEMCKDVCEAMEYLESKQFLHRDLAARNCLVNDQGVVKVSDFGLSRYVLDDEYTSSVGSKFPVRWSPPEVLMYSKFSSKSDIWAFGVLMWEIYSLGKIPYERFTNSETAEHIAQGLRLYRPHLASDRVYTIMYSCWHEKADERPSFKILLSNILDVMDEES
T1 sequence (Q06187 whole entry): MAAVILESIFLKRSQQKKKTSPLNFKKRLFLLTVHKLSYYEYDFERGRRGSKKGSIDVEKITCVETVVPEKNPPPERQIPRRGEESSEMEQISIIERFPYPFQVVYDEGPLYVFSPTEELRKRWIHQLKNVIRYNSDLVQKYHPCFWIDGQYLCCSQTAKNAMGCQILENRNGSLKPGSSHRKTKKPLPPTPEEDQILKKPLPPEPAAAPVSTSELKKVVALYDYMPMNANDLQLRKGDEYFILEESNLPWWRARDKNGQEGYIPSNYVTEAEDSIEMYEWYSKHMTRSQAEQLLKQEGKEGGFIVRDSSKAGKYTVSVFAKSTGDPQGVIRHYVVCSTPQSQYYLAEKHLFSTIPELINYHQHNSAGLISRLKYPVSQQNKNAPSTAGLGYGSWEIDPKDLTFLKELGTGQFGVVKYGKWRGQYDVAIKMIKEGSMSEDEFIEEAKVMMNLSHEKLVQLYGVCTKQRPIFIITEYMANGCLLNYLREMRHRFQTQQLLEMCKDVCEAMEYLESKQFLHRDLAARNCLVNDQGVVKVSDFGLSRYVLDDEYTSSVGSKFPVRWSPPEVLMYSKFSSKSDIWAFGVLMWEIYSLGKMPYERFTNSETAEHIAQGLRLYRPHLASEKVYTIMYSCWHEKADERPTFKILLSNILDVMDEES
Chain of Erbb4 kinase domain (Q15303 718-985): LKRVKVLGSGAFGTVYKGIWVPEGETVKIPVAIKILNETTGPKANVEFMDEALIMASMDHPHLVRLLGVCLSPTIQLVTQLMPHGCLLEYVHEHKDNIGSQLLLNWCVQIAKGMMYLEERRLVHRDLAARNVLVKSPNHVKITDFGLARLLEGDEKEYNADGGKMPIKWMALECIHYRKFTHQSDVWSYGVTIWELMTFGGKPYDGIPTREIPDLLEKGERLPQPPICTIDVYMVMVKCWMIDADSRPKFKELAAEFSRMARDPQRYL
Chain of JAK3 (P52333 whole entry): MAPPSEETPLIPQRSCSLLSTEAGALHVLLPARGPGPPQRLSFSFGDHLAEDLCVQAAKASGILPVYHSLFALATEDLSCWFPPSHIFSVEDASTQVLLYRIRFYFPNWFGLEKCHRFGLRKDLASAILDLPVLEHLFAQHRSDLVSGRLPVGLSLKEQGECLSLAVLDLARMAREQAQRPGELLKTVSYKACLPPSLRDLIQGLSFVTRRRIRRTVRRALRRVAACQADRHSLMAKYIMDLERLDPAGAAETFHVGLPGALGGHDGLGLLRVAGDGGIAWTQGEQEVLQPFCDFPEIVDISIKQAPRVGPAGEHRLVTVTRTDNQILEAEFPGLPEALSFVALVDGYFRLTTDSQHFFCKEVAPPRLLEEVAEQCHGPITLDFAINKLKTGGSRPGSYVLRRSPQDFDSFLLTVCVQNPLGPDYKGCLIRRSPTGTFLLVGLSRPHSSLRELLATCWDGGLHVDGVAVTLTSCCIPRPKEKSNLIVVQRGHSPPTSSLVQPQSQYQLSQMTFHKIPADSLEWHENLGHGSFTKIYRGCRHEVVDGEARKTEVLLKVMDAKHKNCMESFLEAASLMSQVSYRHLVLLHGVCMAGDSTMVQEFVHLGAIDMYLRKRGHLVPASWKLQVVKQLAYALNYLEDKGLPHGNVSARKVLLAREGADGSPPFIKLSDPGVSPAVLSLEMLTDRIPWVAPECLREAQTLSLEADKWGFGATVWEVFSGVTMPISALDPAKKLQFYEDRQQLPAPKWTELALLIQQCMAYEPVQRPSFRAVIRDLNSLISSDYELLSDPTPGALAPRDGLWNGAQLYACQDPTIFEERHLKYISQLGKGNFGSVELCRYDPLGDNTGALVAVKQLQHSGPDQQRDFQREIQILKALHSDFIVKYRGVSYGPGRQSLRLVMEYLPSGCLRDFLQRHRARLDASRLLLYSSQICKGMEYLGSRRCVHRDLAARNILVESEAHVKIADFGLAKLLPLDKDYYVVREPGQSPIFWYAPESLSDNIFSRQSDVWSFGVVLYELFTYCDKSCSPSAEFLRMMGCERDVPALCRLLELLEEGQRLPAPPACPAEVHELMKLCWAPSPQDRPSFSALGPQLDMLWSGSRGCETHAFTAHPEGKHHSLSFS

| SMILES | covalent modification of ErbB4 by mass spectrometry (Erbb4 kinase domain) | receptor occupancy at 30 mg/kg (BTK [1]; [4]) [%] | receptor occupancy at 30 mg/kg (BTK [1]; [5]) [%] | covalent modification of JAK3 peptide LVMEYLPSGCLR (Cys909) by mass spectrometry (JAK3) | time BTK protein remains occupied after compound removal (BTK [2]) | BTK occupancy (BTK available to probe I-215) (BTK [3]) |
| --- | --- | --- | --- | --- | --- | --- |
| Cc1cccc(Nc2nc(Nc3cccc(NC(=O)/C=C/CN(C)C)c3)ncc2F)c1 [Compound I-4, (E)-4-(dimethylamino)-N-(3-(5-fluoro-4-(m-tolylamino)pyrimidin-2-ylamino)phenyl)but-2-enamide] | covalent modification | 87 | 68 |  |  |  |
| C=CC(=O)Nc1cccc(Nc2nc(Nc3ccccc3)ncc2C)c1 [Compound I-7, N-(3-(5-methyl-2-(phenylamino)pyrimidin-4-ylamino)phenyl)acrylamide] |  | 98 | 78 | not entirely complete | over 8 hours | fully occupied |
